Patent US20250127169A1, “PLANTS HAVING INCREASED TOLERANCE TO HERBICIDES” (BASF Agricultural Solutions Seed US LLC, priority 2021, published 2025)
Read-outs that look alike come from different tables or passages of the source.

How the values were obtained:
[1] = tested on: Soybean cv Jake WT (non-transgenic); type: in vivo; conditions: post, single plants
Description: Soybean cv Jake is transformed as previously described by Siminszky et al., Phytochem Rev. 5:445-458 (2006). After regeneration, transformants are transplanted to soil in small pots, placed in growth chambers (16 hr day/8 hr night; 25° C. day/23° C. night; 65% relative humidity; 130-150 microE m-2 s-1) and subsequently tested for the presence of the T-DNA via Taqman analysis. After a few weeks, healthy, transgenic positive, single copy events are transplanted to larger pots and allowed to grow in the growth chamber. An optimal shoot for cutting is about 3-4 inches tall, with at least two nodes present. Each cutting is taken from the original transformant (mother plant) and dipped into rooting hormone powder (indole-3-butyric acid, IBA). The cutting is then placed in oasis wedges inside a bio-dome. The mother plant is taken to maturity in the greenhouse and harvested for seed. Wild type cuttings are also taken simultaneously to serve as negative controls. The cuttings are kept in the bio-dome for 5-7 days and then transplanted to 3 inch pots and then acclimated in the growth chamber for two more days. Subsequently, the cuttings are transferred to the greenhouse, acclimated for approximately 4 days prior to spray. T0 or 2-week old T1 plants are sprayed with a treatment of the phenyluracils as disclosed SUPRA and optionally photosynthesis inhibitor diuron as negative control. Herbicide injury evaluations are taken at 2, 7, 14 and 21 days after treatment.
Evaluation performed 3 Days After Treatment (DAT) and 1 Week after Treatment (WAT) and shown as injury (0-9) relative to non-transgenic treated plants. Injury Scale: 0-9, 0=no injury, 9=maximum injury. Note: segregating lines.
The following gives a definition of the injury scores measured above: • Score Description of injury • 0 No Injury • 1 Minimal injury, only a few patches of leaf injury or chlorosis. • 2 Minimal injury with slightly stronger chlorosis. Overall growth points remain undamaged. • 3 Slightly stronger injury on secondary leaf tissue, but primary leaf and growth points are still undamaged. • 4 Overall plant morphology is slightly different, some chlorosis and necrosis in secondary growth points and leaf tissue. Stems are intact. Regrowth is highly probable within 1 week. • 5 Overall plant morphology is clearly different, some chlorosis and necrosis on a few leaves and growth points, but primary growth point is intact. Stem tissue is still green. Regrowth is highly probably within 1 week. • 6 Strong injury can be seen on the new leaflet growth. Plant has a high probability to survive only through regrowth at different growth points. Most of the leaves are chlorotic/necrotic but stem tissue is still green. May have regrowth but with noticeable injured appearance. • 7 Most of the active growth points are necrotic. There may be a single growth point that could survive and may be partially chlorotic or green and partially necrotic. Two leaves may still be chlorotic with some green; the rest of the plant including stem is necrotic. • 8 Plant will likely die, and all growth points are necrotic. One leaf may still be chlorotic with some green. The remainder of the plant is necrotic. • 9 Plant is dead.

[2] = tested on: Soybean CD215 WT (non-transgenic); type: in vivo; conditions: post, single plants
[3] = target: PPO AMATU WT (SEQ ID NO: 1) (Amaranthus tuberculatus, UniProt Q0NZW9); assay: PPO enzyme assay (recombinant); type: biochemical; conditions: 150 μM Protogen, molar concentration for 50% enzyme inhibition

COC(=O)C(OC)Oc1ccccc1Oc1cc(-n2c(=O)cc(C(F)(F)F)n(C)c2=O)c(F)cc1Br (stereo not drawn) [Phenyluracil No. 1]
injury (0-9) ([1]; 25 g/ha + 1% MSO, 1WAT): 9 (Plant is dead.) | injury (0-9) ([1]; 25 g/ha + 1% MSO, 3DAT): 9 (Plant is dead.) | injury (0-9) ([1]; 50 g/ha + 1% MSO, 1WAT): 9 (Plant is dead.) | injury (0-9) ([1]; 50 g/ha + 1% MSO, 3DAT): 9 (Plant is dead.) | injury (0-9) ([1]; 100 g/ha + 1% MSO, 1WAT): 9 (Plant is dead.) | injury (0-9) ([1]; 100 g/ha + 1% MSO, 3DAT): 9 (Plant is dead.) | injury (0-9) ([2]; 25 g/ha + 1% MSO, 1WAT): 9 (Plant is dead.) | injury (0-9) ([2]; 25 g/ha + 1% MSO, 3DAT): 9 (Plant is dead.) | injury (0-9) ([2]; 50 g/ha + 1% MSO, 1WAT): 9 (Plant is dead.) | injury (0-9) ([2]; 50 g/ha + 1% MSO, 3DAT): 9 (Plant is dead.) | injury (0-9) ([2]; 100 g/ha + 1% MSO, 1WAT): 9 (Plant is dead.) | injury (0-9) ([2]; 100 g/ha + 1% MSO, 3DAT): 9 (Plant is dead.)

COC(=O)C(OC)Oc1ccccc1Oc1cc(-n2c(=O)cc(C(F)(F)F)n(C)c2=O)c(F)cc1Br (stereo not drawn) [phenyluracil 1, methyl 2-[2-[2-bromo-4-fluoro-5-[3-methyl-2,6-dioxo-4-(trifluoromethyl)pyrimidin-1-yl]phenoxy]phenoxy]-2-methoxy-acetate]
IC50 [3]: 0.716 nM

CCOC(=O)C(OC)Oc1ccccc1Oc1cc(-n2c(=O)cc(C(F)(F)F)n(C)c2=O)c(F)cc1Br (stereo not drawn) [phenyluracil 2, ethyl 2-[2-[2-bromo-4-fluoro-5-[3-methyl-2,6-dioxo-4-(trifluoromethyl)pyrimidin-1-yl]phenoxy]phenoxy]-2-methoxy-acetate]
IC50 [3]: 0.323 nM

COC(Oc1ccccc1Oc1cc(-n2c(=O)cc(C(F)(F)F)n(C)c2=O)c(F)cc1Br)C(=O)O (stereo not drawn) [phenyluracil 3, 2-[2-[2-bromo-4-fluoro-5-[3-methyl-2,6-dioxo-4-(trifluoromethyl)pyrimidin-1-yl]phenoxy]phenoxy]-2-methoxy-acetic acid]
IC50 [3]: 0.183 nM
